Laboratory results taken from paper PMC9570017, “Unorthodox PCNA Binding by Chromatin Assembly Factor 1” (International Journal of Molecular Sciences, 2022).

What was measured:
PCNA-Y250I = assay: Isothermal titration calorimetry (ITC), wild-type PIP titrated into PCNA-Y250I; assay type: binding, human; conditions: 23 °C, 10 mM sodium phosphate, pH 7.0, 10 mM NaCl
Description: Recombinant PCNA, PCNA-Y250I, and the PIP peptides (wild-type, R426D) were expressed and purified as described in the Supplementary Materials section—“Expression and purification of recombinant proteins”. The proteins were dialyzed against three 4-litre changes of ITC buffer containing 10 mM sodium phosphate, pH 7.0, and 10 mM NaCl at 4 °C overnight. The concentrations of PCNA and PIP peptides were determined by measuring tyrosine absorption at A280nm. ITC titrations of peptides into PCNA were performed at 23 °C in the ITC buffer (10 mM sodium phosphate, pH 7.0, 10 mM NaCl) using a MicroCal VP-ITC system. The concentrations of injected wild-type and mutant PIP in the syringe varied from 200 to 500 μM, whereas PCNA in the ITC sample cell varied depending on the experiment from 20 to 50 μM PCNA monomer. The protein and peptide samples were degassed before the ITC run. Data analysis was performed using the MicroCal Origin 7.0 software (OriginLab Corporation, Northampton, MA, USA) and all experiments fit the single binding site model. […]
S1. […] The C-terminal tyrosine was added to aid in peptide detection during the purification by measuring the absorbance at 280 nm. […] The next day, the saturated cells were diluted to 0.05 OD measured at A600 nm and the cells were grown at 37°C until the cells reach the mid-exponential phase of 0.6-0.8 at OD A600 nm. […]

human PCNA = target: T1, human PCNA (Homo sapiens, UniProt P12004); assay: Isothermal titration calorimetry (ITC), PIP peptide titrated into wild-type PCNA; assay type: binding
T1 construct: His6 (C); made in house; host or cells: E. coli Codon Plus BL21(DE3) pLysS
T1 sequence (P12004 whole entry): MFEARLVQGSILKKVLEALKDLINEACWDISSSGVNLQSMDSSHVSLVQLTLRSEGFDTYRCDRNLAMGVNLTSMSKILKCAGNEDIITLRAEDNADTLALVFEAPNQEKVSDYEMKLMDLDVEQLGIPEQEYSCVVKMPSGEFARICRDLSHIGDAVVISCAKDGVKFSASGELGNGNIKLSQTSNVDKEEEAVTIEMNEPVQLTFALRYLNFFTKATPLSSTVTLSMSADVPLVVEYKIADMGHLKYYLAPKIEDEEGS
Text: The wild-type and R426D peptides were expressed as GST fusions in E. coli, purified to homogeneity (see Materials and Methods) and used in isothermal titration calorimetry (ITC) assays with human PCNA purified from E. coli.
Recombinant PCNA, PCNA-Y250I, and the PIP peptides (wild-type, R426D) were expressed and purified as described in the Supplementary Materials section—“Expression and purification of recombinant proteins”. The proteins were dialyzed against three 4-litre changes of ITC buffer containing 10 mM sodium phosphate, pH 7.0, and 10 mM NaCl at 4 °C overnight. The concentrations of PCNA and PIP peptides were determined by measuring tyrosine absorption at A280nm. ITC titrations of peptides into PCNA were performed at 23 °C in the ITC buffer (10 mM sodium phosphate, pH 7.0, 10 mM NaCl) using a MicroCal VP-ITC system. The concentrations of injected wild-type and mutant PIP in the syringe varied from 200 to 500 μM, whereas PCNA in the ITC sample cell varied depending on the experiment from 20 to 50 μM PCNA monomer. The protein and peptide samples were degassed before the ITC run. Data analysis was performed using the MicroCal Origin 7.0 software (OriginLab Corporation, Northampton, MA, USA) and all experiments fit the single binding site model.
Supplementary Materials-Expression and purification of recombinant proteins
S1. Expression and purification of GST-PIP fusion proteins in Escherichia coli Wild-type p150 PIP and R426D peptides were constructed as GST-fusion proteins with a tyrosine at the C-terminus of the peptide. The C-terminal tyrosine was added to aid in peptide detection during the purification by measuring the absorbance at 280 nm. The DNA fragments encoding the GST fusion proteins were inserted into a pGEX-TEV vector, which is essentially a modified pGEX-2T vector where the thrombin cleavage site was replaced with a TEV cleavage site. The pGEX-TEV plasmid was digested with BamHI and EcoRI and ligated to DNA fragments encoding either the p150 PIP wild-type and R426D. The plasmids pGEX-TEV-PIP wild type and pGEX-TEV-PIP R426D were con-firmed by DNA sequencing and then expressed in Escherichia coli host strain TOPP2 (Strat-agene) with 100 µg/ml ampicillin to saturation at 37°C. The next day, the saturated cells were diluted to 0.05 OD measured at A600 nm and the cells were grown at 37°C until the cells reach the mid-exponential phase of 0.6-0.8 at OD A600 nm. The cells were then in-duced with 1 mM isopropyl-D-thiogalactopyranoside (IPTG) for 4 h. Eight litres of cell culture were grown each for the wild-type and R426D mutant. The cells were then har-vested by centrifugation in an Avanti J-26XP high-performance centrifuge from Beckman Coulter with a fixed angle rotor (JLA-8.1000) at 9000 x g for 30 min at 4°C. The pellet from 1 litre cells equivalent was lysed in 10 ml of lysis buffer containing 20 mM Tris pH 7.5, 1 M NaCl, 0.2 mM EDTA, 1 mM DTT, 50 µg/ml lysozyme, 1 mM AEBSF and one tablet of cOmplete™ Mini EDTA-free Protease Inhibitor Cocktail Tablets (Roche). The cell pellet was sonicated in the lysis buffer on ice, at power output level 4 with 10 seconds pulse on and 30 seconds off at 6 watts using a Misonix 3000 Ultrasonic cell disruptor and wider probe. The lysate was clarified by centrifugation for 30 min in an Avanti J-26XP with a fixed angle rotor 25.50 at 30966 x g at 4°C. The clarified supernatant was incubated on a nutator for 6 h at 4°C with 10 ml of glutathione-Sepharose (GSH) resin (Amersham) pre-washed and equilibrated with lysis buffer. After incubation the GSH resin was pelleted, the unbound supernatant was removed, and the resin was washed thrice with lysis buffer and twice with Tobacco Etch Virus (TEV) protease buffer (20 mM sodium phosphate pH 6.5, 50 mM NaCl, 2 mM DTT). The peptide was cleaved from the GSH resin by incubating in the presence of TEV protease overnight at 4°C. The next day, the supernatant was har-vested by centrifugation, and the GSH resin was washed twice with 20 mM sodium phos- […]

[1] = Size exclusion chromatography of PCNA-Y250I; assay type: physicochemical
Description: S3. Expression and purification of wild-type and mutant PCNA proteins in Escherichia […]
PCNA wild-type and mutants were expressed and purified as previously reported. In short, wild-type or mutant plasmids in pET23-C-His6-PCNA vectors were trans-formed and expressed in Codon Plus BL21(DE3) pLysS E. coli (Stratagene) cells. Single colonies were inoculated and grown overnight in the Luria-Bertani medium containing 100 µg/mL ampicillin to saturation at 37°C. The next day the cells were diluted and grown to mid-exponential phase (0.6-0.8) at OD600 nm, and the expression was induced with 1 mM isopropyl-β-D-thiogalactopyranoside (IPTG) for 4 h. PCNA mutants were transformed and expressed in a similar way.
Cells were spun in an Avanti J-26XP high performance centrifuge from Beckman Coul-ter with a fixed angle rotor (JLA-8.1000) at 9000 x g for 30 min at 4°C and the pellets from 1 litre of cell culture were resuspended in 50 mL of lysis buffer containing 50 mM sodium phosphate pH 8.0, 150 mM NaCl, 10% glycerol, 20 mM imidazole, 0.02% nonidet P-40, 2 mM DTT. […]
The eluate was subsequently purified with a Superdex™ 200 gel filtration column (GE Healthcare) in gel filtration buffer 20 mM Tris pH 7.5, 150 mM NaCl, 1 mM DTT. The fractions corresponding to PCNA homotrimer were pooled, concentrated with an amicon concentrator with 3 kDa MWCO, quantified using absorbance at A280 nm, and stored at - […]

[2] = ITC at 296 K, 10 mM Na-phosphate (pH 7.0), 10 mM NaCl

N (stoichiometry of peptide binding per PCNA monomer) (human PCNA; [2])	ΔG (human PCNA; [2]) [kcal/mol]	ΔH (human PCNA; [2]) [kcal/mol]	ΔS (human PCNA; [2]) [cal K^−1 mol^−1]	Kd (human PCNA; ITC at 296 K, 10 mM Na-phosphate (pH 7.0), 10 mM NaCl, one binding site per PCNA monomer, PIP 200 to 500 μM in syringe, PCNA 20 to 50 μM monomer) [µM]	stoichiometry (PIP per PCNA monomer) (human PCNA; ITC, 23 °C, 10 mM sodium phosphate, pH 7.0, 10 mM NaCl)	Substance	heat exchange / binding to PCNA-Y250I (PCNA-Y250I)	aggregation [1]
0.83	-6.25	-1.868	14.8	24	0.83	KAEITRFF [CAF-1 PIP wild type, wild-type p150 PIP expressed as GST fusion with C-terminal tyrosine, TEV-cleaved and purified, used for ITC]	no detectable heat exchange observed by ITC	
						PCNA-Y250I: PCNA mutated at the tyrosine involved in the cation-π interaction with CAF-1 p150 Arg426		no evidence of aggregation
